Results on one molecule are retold here after patent publication US8193343B2, “Manufacture and products thereof of photosensitizing nanomaterials and their use in photodynamic treatment” (Westfalische Wilhelms-Universitat Munster, priority 2009, dated 2012).

A short description of the test: phosphorescence of singlet oxygen (near IR emission spectrum). To be noted: in CD2Cl2 at room temperature, λexc=670 nm. On the procedure: The spectrum was recorded from a suspension of the photosensitizing nanomaterial in CD2Cl2 at room temperature, λexc=670 nm.
The singlet oxygen ^1O2 is produced by reaction of triplet oxygen (^3O2) with the monomeric form of the silicon (IV) phthalocyanine chloride complex, which is present on the surface of the zeolite L crystals, according to an example of the present disclosure. The generation of the singlet oxygen ^1O2 was investigated by measuring the near IR emission spectrum of the photosensitizing nanomaterials 40 in a suspension with deuteriated dichloromethane as the solvent (CD2Cl2). […] No characteristic phosphorescence can be detected.
Fluorescence emission and excitation spectra of the photosensitizing nanomaterial 40 suspended in CH2Cl2 were recorded by using a HORIBA Jobin-Yvon IBH FL-322 Fluorolog 3 spectrometer. The phosphorescence spectrum of ^1O2 in CD2Cl2 was recorded by using a HORIBA Jobin-Yvon IBH FL-322 Fluorolog 3 spectrometer equipped with an air-cooled Hamamatsu H9170-75 (InP/InGaAs) PMT detector.

SMILES strings stand for the structures.

For `Cl[Si]1(Cl)n2c3c4ccccc4c2N=C2N=C(N=c4c5ccccc5c(n41)=NC1=NC(=N3)c3ccccc31)c1ccccc12` [silicon (IV) phthalocyanine chloride, Si(IV) phthalocyanine dichloride], the “generation of singlet oxygen (1O2), characteristic phosphorescence” value was “does not show any generation of the singlet oxygen”.
